According to patent publication US10294202B2, “Pyrrolidinones as herbicides” (FMC Corporation, priority 2013, dated 2019):

Experiments:
barnyardgrass = experiment: Test A pre-/postemergence herbicide test; format: in vivo, Echinochloa crus-galli
Procedure, shortened: (§1)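 Approximately 10 days after treatment in the greenhouse, plants were compared with untreated controls and given a 0–100 visual injury rating. Applications: preemergence directed soil spray; postemergence on 2–10 cm plants at the one- to two-leaf stage.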

ryegrass, Italian = experiment: Test A pre-/postemergence herbicide test; format: in vivo, Lolium multiflorum
Procedure, shortened: as §1

pigweed = experiment: Test A pre-/postemergence herbicide test; format: in vivo, Amaranthus retroflexus
Procedure, shortened: as §1

corn = experiment: Test C pre-/postemergence herbicide test; format: in vivo, Zea mays
Procedure, shortened: (§2)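 Plants grown and held in a greenhouse for 13 to 15 days post-spray, then rated 0–100 by visual comparison with controls. Pre treatments targeted seeds in loam and sand; post treatments targeted 1- to 4-leaf plants in peat-based potting medium.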

nutsedge, yellow = experiment: Test C pre-/postemergence herbicide test; format: in vivo, Cyperus esculentus
Procedure, shortened: as §2

ragweed = experiment: Test C pre-/postemergence herbicide test; format: in vivo, Ambrosia elatior
Procedure, shortened: as §2

kochia = experiment: Test C pre-/postemergence herbicide test; format: in vivo, Kochia scoparia; settings: Postemergence
Procedure, shortened: as §2

oat, wild = experiment: Test C pre-/postemergence herbicide test; format: in vivo, Avena fatua; settings: Postemergence
Procedure, shortened: as §2

chickweed = experiment: Test C postemergence herbicide test; format: in vivo, Stellaria media
Procedure, shortened: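 Response is scored visually on a 0–100 scale (100 = complete control) relative to untreated controls, 13 to 15 days after treatment. Plants were sprayed postemergence at the 1- to 4-leaf stage (2 to 18 cm tall) and kept in a greenhouse.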

[1] = Postemergence, 125 g ai/ha, 0 to 100 scale, 0 is no effect, 100 is complete control
[2] = Postemergence, 500 g ai/ha, 0 to 100 scale (0 no effect, 100 complete control)
[3] = Preemergence, 125 g ai/ha, 0 to 100 scale where 0 is no effect and 100 is complete control
[4] = preemergence, 500 g ai/ha, 0 to 100 scale, 0 is no effect and 100 is complete control
[5] = Postemergence, 125 g ai/ha, visual rating on 0 to 100 scale (0 no effect, 100 complete control), approx. 10 days
[6] = Postemergence, 31 g ai/ha, scale 0 to 100 (0 no effect, 100 complete control)
[7] = Postemergence, 62 g ai/ha, scale 0 (no effect) to 100 (complete control)
[8] = Postemergence, 125 g ai/ha, scale 0 to 100 (0 no effect, 100 complete control)
[9] = Postemergence, 250 g ai/ha, scale 0 to 100 (0 no effect, 100 complete control)
[10] = Preemergence, 31 g ai/ha, scale 0 to 100, 0 is no effect and 100 is complete control
[11] = Preemergence, 62 g ai/ha, scale 0 to 100 (0 no effect, 100 complete control)
[12] = Preemergence, 125 g ai/ha, scale 0 to 100 (0 no effect, 100 complete control)
[13] = 31 g ai/ha, scale 0 to 100 (0 no effect, 100 complete control)
[14] = 62 g ai/ha, scale 0 (no effect) to 100 (complete control)
[15] = 125 g ai/ha, scale 0 to 100 (0 no effect, 100 complete control)
[16] = 250 g ai/ha, scale 0 to 100 (0 no effect, 100 complete control)
[17] = 125 g ai/ha, visual rating, 0 to 100 scale, 0 no effect, 100 complete control, approximately 10 days, preemergence

O=C1NCC(c2cc(F)cc(F)c2)C1C(=O)Nc1cccc(F)c1F (racemic) [Compound 279]
Plant response rating, Barnyardgrass (barnyardgrass; [1]): 80 | Plant response rating, Barnyardgrass (barnyardgrass; [2]): 90 | Plant response rating, Barnyardgrass (barnyardgrass; [3]): 80 | Plant response rating, Barnyardgrass (barnyardgrass; [4]): 90 | Plant response rating, Ryegrass, Italian (ryegrass, Italian; [5]): 0 | Plant response rating, Ryegrass, Italian (ryegrass, Italian; [2]): 0 | Plant response rating, Ryegrass, Italian (ryegrass, Italian; [3]): 0 | Plant response rating, Ryegrass, Italian (ryegrass, Italian; [4]): 60 | Plant response rating, Pigweed (pigweed; [5]): 0 | Plant response rating, Pigweed (pigweed; [2]): 0 | Plant response rating, Pigweed (pigweed; [3]): 0 | Plant response rating, Pigweed (pigweed; [4]): 40 | Plant response rating, Corn (corn; [6]): 0 | Plant response rating, Corn (corn; [7]): 0 | Plant response rating, Corn (corn; [8]): 0 | Plant response rating, Corn (corn; [9]): 0 | Corn plant response rating (corn; [10]): 0 | Corn plant response rating (corn; [11]): 0 | Plant response rating, Corn (corn; [12]): 5 | Plant response rating (scale of 0 to 100), Corn (corn; Preemergence, 250 g ai/ha): 65 | Plant response rating, Nutsedge, Yellow (nutsedge, yellow; [6]): 0 | Plant response rating, Nutsedge, Yellow (nutsedge, yellow; [7]): 0 | Plant response rating, Nutsedge, Yellow (nutsedge, yellow; [8]): 0 | Plant response rating, Nutsedge, Yellow (nutsedge, yellow; [9]): 0 | Nutsedge, Yellow plant response rating (nutsedge, yellow; [10]): 0 | Nutsedge, Yellow plant response rating (nutsedge, yellow; [11]): 0 | Plant response rating, Nutsedge, Yellow (nutsedge, yellow; [12]): 0 | Plant response rating (scale of 0 to 100), Nutsedge, Yellow (nutsedge, yellow; Preemergence, 250 g ai/ha): 55 | Plant response rating, Ragweed (ragweed; [6]): 15 | Plant response rating, Ragweed (ragweed; [7]): 20 | Plant response rating, Ragweed (ragweed; [8]): 35 | Plant response rating, Ragweed (ragweed; [9]): 35 | Ragweed plant response rating (ragweed; [10]): 0 | Ragweed plant response rating (ragweed; [11]): 0 | Plant response rating, Ragweed (ragweed; [12]): 10 | Plant response rating (scale of 0 to 100), Ragweed (ragweed; Preemergence, 250 g ai/ha): 65 | Plant response rating, Kochia (kochia; [13]): 0 | Plant response rating, Kochia (kochia; [14]): 30 | Plant response rating, Kochia (kochia; [15]): 85 | Plant response rating, Kochia (kochia; [16]): 35 | Plant response rating, Oat, Wild (oat, wild; [13]): 0 | Plant response rating, Oat, Wild (oat, wild; [14]): 0 | Plant response rating, Oat, Wild (oat, wild; [15]): 0 | Plant response rating, Oat, Wild (oat, wild; [16]): 0 | Plant response rating, Chickweed (chickweed; [13]): 5 | Plant response rating, Chickweed (chickweed; [14]): 75 | Plant response rating, Chickweed (chickweed; [15]): 30 | Plant response rating, Chickweed (chickweed; [16]): 5

O=C1NCC(c2cccc(OC(F)F)c2)C1C(=O)Nc1ccccc1F (stereo not drawn) [Compound 223]
Plant response rating, Barnyardgrass (barnyardgrass; [17]): 90 | Plant response rating, Barnyardgrass (barnyardgrass; [1]): 80 | Barnyardgrass plant response rating (0 to 100 scale, 0 is no effect, 100 is complete control) (barnyardgrass; Postemergence, 500 g ai/ha): 80 | Plant response rating, Barnyardgrass (barnyardgrass; [4]): 90 | Plant response rating, Ryegrass, Italian (ryegrass, Italian; [17]): 30 | Plant response rating, Ryegrass, Italian (ryegrass, Italian; [1]): 0 | Ryegrass, Italian plant response rating (0 to 100 scale, 0 is no effect, 100 is complete control) (ryegrass, Italian; Postemergence, 500 g ai/ha): 40 | Plant response rating, Ryegrass, Italian (ryegrass, Italian; [4]): 60 | Plant response rating, Pigweed (pigweed; [17]): 20 | Plant response rating, Pigweed (pigweed; [1]): 40 | Pigweed plant response rating (0 to 100 scale, 0 is no effect, 100 is complete control) (pigweed; Postemergence, 500 g ai/ha): 60 | Plant response rating, Pigweed (pigweed; [4]): 50 | Plant response rating, Corn (corn; [6]): 0 | Plant response rating, Corn (corn; [7]): 0 | Plant response rating, Corn (corn; [8]): 0 | Plant response rating, Corn (corn; [9]): 5 | Corn plant response rating (corn; [10]): 0 | Corn plant response rating (corn; [11]): 0 | Plant response rating, Corn (corn; [12]): 0 | Plant response rating (scale of 0 to 100), Corn (corn; Preemergence, 250 g ai/ha): 45 | Plant response rating, Nutsedge, Yellow (nutsedge, yellow; [6]): 0 | Plant response rating, Nutsedge, Yellow (nutsedge, yellow; [7]): 0 | Plant response rating, Nutsedge, Yellow (nutsedge, yellow; [8]): 0 | Plant response rating, Nutsedge, Yellow (nutsedge, yellow; [9]): 0 | Nutsedge, Yellow plant response rating (nutsedge, yellow; [10]): 100 | Nutsedge, Yellow plant response rating (nutsedge, yellow; [11]): 0 | Plant response rating, Nutsedge, Yellow (nutsedge, yellow; [12]): 0 | Plant response rating (scale of 0 to 100), Nutsedge, Yellow (nutsedge, yellow; Preemergence, 250 g ai/ha): 0 | Plant response rating, Ragweed (ragweed; [6]): 0 | Plant response rating, Ragweed (ragweed; [7]): 0 | Plant response rating, Ragweed (ragweed; [8]): 35 | Plant response rating, Ragweed (ragweed; [9]): 35 | Ragweed plant response rating (ragweed; [10]): 0 | Ragweed plant response rating (ragweed; [11]): 0 | Plant response rating, Ragweed (ragweed; [12]): 10 | Plant response rating (scale of 0 to 100), Ragweed (ragweed; Preemergence, 250 g ai/ha): 25 | Plant response rating, Kochia (kochia; [13]): 0 | Plant response rating, Kochia (kochia; [14]): 5 | Plant response rating, Kochia (kochia; [15]): 30 | Plant response rating, Kochia (kochia; [16]): 60 | Plant response rating, Oat, Wild (oat, wild; [13]): 0 | Plant response rating, Oat, Wild (oat, wild; [14]): 0 | Plant response rating, Oat, Wild (oat, wild; [15]): 0 | Plant response rating, Oat, Wild (oat, wild; [16]): 0 | Plant response rating, Chickweed (chickweed; [13]): 40 | Plant response rating, Chickweed (chickweed; [14]): 45 | Plant response rating, Chickweed (chickweed; [15]): 50 | Plant response rating, Chickweed (chickweed; [16]): 80
